Molecules are shown by their SMILES.

A word on the IC50: it is the concentration needed to halve the response being measured. For orientation: half-life means the time needed for the level to fall by half in the phase considered.

One series concerns A549. The series can be described thus: Antiproliferative activity against human A549 cells expressing wild type EGFR assessed as reduction in cell viability after 72 hrs by MTT assay. It counts as functional, cell-based. The settings on record: A549, 72 h.
Series [1] in a line: Antitumor activity against mouse C26 cells xenografted in BALB/c mouse assessed as tumor growth inhibition at 50 mg/kg, po administered once daily and measured every two days by caliper method relative to control. Format: functional. The settings on record: 48 h, read-out: TGI.
A short description of series [2]: Metabolic stability in human liver microsomes assessed as half life. It counts as ADME, Microsome. (Liver microsomes are vesicles of endoplasmic reticulum, rich in cytochrome P450 enzymes.)
A short description of series [3]: Toxicity in nude BALB/c mouse xenografted with C26 cells assessed as change in body weight at 50 mg/kg, po administered once daily and measured every two days. The settings on record: in vivo. It counts as organism-based.
In a further series the test system is L929. The series can be described thus: Cytotoxicity against mouse L929 cells. It counts as cell-based.
Series [4] in a line: Toxicity in nude BALB/c mouse xenografted with C26 cells assessed as abnormalities in heart size and morphology at 50 mg/kg, po administered once daily. Format: organism-based. Particulars: in vivo.
Series [5] can be described thus: Toxicity in nude BALB/c mouse xenografted with C26 cells assessed as abnormalities in kidney size and morphology at 50 mg/kg, po administered once daily. It counts as organism-based. Particulars: in vivo.
A further series deals with NCI-H460. The series can be described thus: Antiproliferative activity against human NCI-H460 cells assessed as reduction in cell viability after 72 hrs by MTT assay. Format: functional, cell-based. The settings on record: NCI-H460, 72 h. (In general: Formazan colour is commonly taken as a measure of viable cells.)
Series [6] in a line: Toxicity in nude BALB/c mouse xenografted with C26 cells assessed as abnormalities in liver size and morphology at 50 mg/kg, po administered once daily. It counts as organism-based. The settings on record: in vivo.
The nature of series [7]: Antiproliferative activity against human SPCA1 cells expressing wild type EGFR assessed as reduction in cell viability after 72 hrs by MTT assay. Format: functional, cell-based. The settings on record: SPCA1, 72 h.
Series [8] is described as follows: Metabolic stability in human liver microsomes assessed as intrinsic clearance per gram protein. It counts as ADME, Microsome.
Series [9] can be described thus: Toxicity in nude BALB/c mouse xenografted with C26 cells assessed as body weight loss at 60 mg/kg, po administered once daily and measured every two days. It counts as organism-based. Particulars: in vivo.
The test system of the next series is HCC827. The experiment in a line: Antiproliferative activity against human HCC827 cells assessed as reduction in cell viability after 72 hrs by MTT assay. The settings on record: HCC827, 72 h. It counts as functional, cell-based.
The subject of the next series is NCI-H1975. The series can be described thus: Antiproliferative activity against human NCI-H1975 cells assessed as reduction in cell viability after 72 hrs by MTT assay. The settings on record: NCI-H1975, 72 h. Format: functional, cell-based.
Series [10] in a line: Toxicity in nude BALB/c mouse xenografted with C26 cells assessed as abnormalities in lung size and morphology at 50 mg/kg, po administered once daily. It counts as organism-based. The settings on record: in vivo.
In another series the test system is NCI-H1650. The series can be described thus: Antiproliferative activity against human NCI-H1650 cells expressing EGFR mutant assessed as reduction in cell viability after 72 hrs by MTT assay. Format: functional, cell-based. Particulars: NCI-H1650, 72 h.
The next series relates to NCI-H441. The experiment in a line: Antiproliferative activity against human NCI-H441 cells […] assessed as reduction in cell viability after 72 hrs by MTT assay. It counts as functional, cell-based. The settings on record: NCI-H441, 72 h.

For `C=CCc1ccc(OCC)c(-c2cc(CC=C)cc(CN3CCC(NC(=O)[C@@H](N)Cc4ccccc4)CC3)c2O)c1`, the IC50 in the series on A549 was found to be 2000 nM; with L929, 6240 nM; in the series with NCI-H460, 1110 nM; in [7] it was 1940 nM; in the series with HCC827, 820 nM; with NCI-H1975 it was 1450 nM. For the same molecule, the IC50 in the series with NCI-H1650 worked out at 2340 nM; in the series on NCI-H441 it was 2120 nM. Besides, the inhibition in vivo at 50 mg/kg in [1] was found to be 57.4%. In addition, the half-life in series [2] amounted to 24.6 min. In addition, the Activity entry in [3] was “Toxic”; in [4] it was “Non-Toxic”; in [5], “Non-Toxic”; in [6], “Non-Toxic”; in series [9], “Toxic”; in series [10] it was “Non-Toxic”. For the same molecule, the CLint in series [8] worked out at 56.4 mL/min/g.

As for `C=CCc1ccc(OC(C)C)c(-c2cc(CC=C)cc(CN3CCC(NC(=O)[C@@H](N)Cc4ccccc4)CC3)c2O)c1`, the IC50 was 1220 nM in the series with A549; 6240 nM in the series with L929; 1320 nM in the series with NCI-H460; 1350 nM in [7]; 850 nM with HCC827; 2760 nM in the series on NCI-H1975. Moreover, the 50% inhibitory concentration (IC50) is 1680 nM in the series on NCI-H1650 and 2040 nM in the series with NCI-H441. In addition, the inhibition in vivo at 50 mg/kg in [1] came out at 62.4%. Besides, the half-life in series [2] was found to be 21.7 min. The Activity entry was “Toxic” in series [3]; “Non-Toxic” in [4]; “Non-Toxic” in series [5]; “Non-Toxic” in series [6]; “Non-Toxic” in series [10]. The CLint in series [8] was 63.8 mL/min/g.

In the case of `C=CCc1ccc(OCC)c(-c2cc(CC=C)cc(CN3CCC(N)CC3)c2O)c1`, the IC50 in the series with A549 was 3050 nM; in the series on L929, 1780 nM; in the series with NCI-H460, 1260 nM; in series [7], 3460 nM; in the series with HCC827, 940 nM; with NCI-H1975, 1430 nM. The half-inhibitory concentration (IC50) amounted to 4150 nM in the series on NCI-H1650 and 2980 nM in the series with NCI-H441. For the same molecule, the half-life in [2] was determined as 130 min. Besides, the CLint in series [8] worked out at 10.7 mL/min/g.

As for `C=CCc1ccc(O)c(-c2cc(CC=C)ccc2O)c1` [MAGNOLOL], the half-inhibitory concentration (IC50) with A549 came out at 82400 nM; with NCI-H460 it was 95600 nM; in [7], 92500 nM; with HCC827 it was 94600 nM; in the series with NCI-H1975, 87300 nM; with NCI-H1650, 66300 nM. For the same molecule, in the series on NCI-H441, the IC50 worked out at 65800 nM. The half-life in series [2] stood at 14.7 min. Besides, the CLint in [8] turned out to be 94 mL/min/g.

For the origin of these results see ChEMBL document CHEMBL4732067, “Synthesis and evaluation of new compounds bearing 3-(4-aminopiperidin-1-yl)methyl magnolol scaffold as anticancer agents for the treatment of non-small cell lung cancer via targeting autophagy” (Eur J Med Chem, 2021).
